The values that follow come from ChEMBL document CHEMBL5325500, “Mannich Base PIP-199 Is a Chemically Unstable Pan-Assay Interference Compound” (J Med Chem, 2023).

The species named for series [1] is Homo sapiens. Nature of the series: Binding affinity to biotinylated RMI1/RMI2 (unknown origin) at 12.5 to 200 uM associated for 60 secs and dissociated for 60 secs by SPR analysis. To be noted: dose 12.5-200 µM, time 120.0 sec.
The species named for series [2] is Homo sapiens. Nature of the series: Displacement of N-terminal TAMRA-labeled SRDLFSVTFDLGFCSPDSDD-NH2 tracer from RMI1/RMI2 (unknown origin) in 50 mM Tris buffer pH 8.8 at 125 uM incubated for 1 hr by fluorescence polarization assay.
Series [3] is described as follows: Stability in potassium phosphate buffer at pH 6 to 8 assessed as drug degradation at 250 uM measured after 1.5 hrs by 1H-NMR analysis. Format: physicochemical. Particulars: pH 6, 1.5 h.
The nature of series [4]: Stability of compound in H2O/MeCN with 0.1% formic acid assessed as elimination of piperazine at 250 uM measured after 1.5 hrs by LC-MS analysis. Format: physicochemical.
Series [5] can be described thus: Stability of compound in H2O/MeCN with 0.1% formic acid assessed as formation of 2-phenyl-3-(pyridin-2-ylmethylene)-3H-indole 1-oxide by measuring retention time at 250 uM measured after 1.5 hrs by LC-MS analysis. Format: physicochemical.
A short description of series [6]: Stability of compound in H2O/MeCN with 0.1% formic acid assessed as formation of 2-phenyl-3-(pyridin-2-ylmethylene)indoline-1,2-diol by measuring retention time at 250 uM measured after 1.5 hrs by LC-MS analysis. Format: physicochemical.
Series [7] can be described thus: Stability of compound in H2O/MeCN with 0.1% formic acid assessed as isomer of nitrone formation by measuring retention time at 250 uM measured after 1.5 hrs by LC-MS analysis. Format: physicochemical.
Series [8] is described as follows: Stability of compound in phosphate buffer at pH 7 to 8 assessed as formation of 2-phenyl-3-(pyridin-2-ylmethylene)-3H-indole 1-oxide at 50 uM measured every 0.1 secs for 3 mins by UV-Vis spectroscopy. Format: physicochemical. Particulars: pH 7, 2.778e-05 h, time 0.1 sec.
Series [9] can be described thus: Stability of compound in 50 mM phosphate buffer at pH 6 to 8 assessed as drug decomposition at 250 uM measured after 1.5 hrs by NMR analysis. Format: physicochemical. Particulars: pH 6, 1.5 h.
Series [10] in a line: Stability of compound in 10 mM Tris buffer at pH 8.8 assessed as drug decomposition at 250 uM measured after 1.5 hrs by NMR analysis. Format: physicochemical. To be noted: pH 8.8, 1.5 h.
The nature of series [11]: Stability of compound in 10 to 50 mM HEPES buffer at pH 7.4 assessed as drug decomposition at 250 uM measured after 1.5 hrs by NMR analysis. Format: physicochemical. To be noted: pH 7.4, 1.5 h.
The nature of series [12]: Stability of compound in 50 mM Tris buffer at pH 8.8 assessed as drug decomposition at 250 uM measured after 1.5 hrs by NMR analysis. To be noted: pH 8.8, 1.5 h. Format: physicochemical.
A short description of series [13]: Stability of compound in 10 to 50 mM NH4Cl buffer at pH 8.8 assessed as drug decomposition at 250 uM measured after 1.5 hrs by NMR analysis. Format: physicochemical. To be noted: pH 8.8, 1.5 h.
For series [14], the species on record is Homo sapiens. Nature of the series: Displacement of N-terminal TAMRA-labeled SRDLFSVTFDLGFCSPDSDD-NH2 tracer from RMI1/RMI2 (unknown origin) in 10 mM Tris buffer pH 8.8 at 125 uM incubated for 1 hr by fluorescence polarization assay.
The nature of series [15]: Solubility of compound assessed as precipitation at >250 uM. Format: physicochemical.
A short description of series [16]: Stability in phosphate buffer at pH 7 to 8 assessed as drug degradation at 250 uM measured after 1.5 hrs by 1H-NMR analysis. To be noted: pH 7, 1.5 h. Format: physicochemical.
Series [17] in a line: Stability in phosphate buffer at pH 6 assessed as drug degradation at 250 uM measured after 1.5 hrs by 1H-NMR analysis. Format: physicochemical. To be noted: read-out: Drug degradation.
Series [18] is described as follows: Stability of compound in H2O/MeCN with 0.1% formic acid assessed as (2-phenyl-1H-indol-3-yl)(pyridin-2-yl)methanol formation by measuring retention time at 250 uM measured after 1.5 hrs by LC-MS analysis. Format: physicochemical.
Series [19] can be described thus: Stability of compound in H2O/MeCN with 0.1% formic acid assessed as retention time of intact compound at 250 uM measured after 1.5 hrs by LC-MS analysis. Format: physicochemical.

Structures are written as SMILES. Activity calls are given as the source filed them. The calls are words filed in the database; no cut-off is given here.

Consider `CCOC(=O)N1CCN(C(c2ccccn2)c2c(C)[nH]c3ccccc23)CC1` (stereo not drawn), for which the outcome in the series listed under Homo sapiens [1] and in the series listed under Homo sapiens [2] was inactive.
`CCOC(=O)N1CCN(C(c2ccccc2)c2c(-c3ccccc3)[nH]c3ccccc23)CC1` (stereo not drawn): the outcome in the series listed under Homo sapiens [2] was inactive.
For `c1ccc(-c2[nH]c3ccccc3c2C(c2ccccn2)N2CCCCC2)cc1` (stereo not drawn), the outcome in the series listed under Homo sapiens [1] and in the series listed under Homo sapiens [2] was inactive.
For `CCOC(=O)N1CCN(C(c2ccccn2)c2c(-c3ccccc3)n(O)c3ccccc23)CC1` (stereo not drawn), the Stability entry in series [3], in series [4], in series [8], in series [9], in series [10] and in series [11] was “Unstable” each time. In addition, the figures for the Stability entry in series [12] and in [13] were “Stable” and “Unstable”, respectively. Also, the Retention_time in series [5] was found to be 11.4 min; in series [6], 8.2 min; in series [7], 9.5 min. For the same compound, the result in the series listed under Homo sapiens [1], in the series filed under Homo sapiens [14] and in the series listed under Homo sapiens [2] was inactive. Also, the solubility entry in series [15] is reported as “Insoluble”.
Turning to `CCOC(=O)N1CCN(C(c2ccccn2)c2ccc3ccccc3c2O)CC1` (stereo not drawn), the result in the series listed under Homo sapiens [1] and in the series listed under Homo sapiens [2] was inactive.
In the case of `CCOC(=O)N1CCN(C(c2ccccn2)c2c(-c3ccccc3)[nH]c3ccccc23)CC1` (stereo not drawn), in series [16], the Stability result is recorded as “Stable”. The degraded at 1.5 h, 250 µM in [17] came to 50%. Besides, the Retention_time amounted to 7.3 min in series [18] and 8.7 min in series [19]. Moreover, the result in the series listed under Homo sapiens [1] and in the series filed under Homo sapiens [2] was inactive.
